The source of these data is patent US5919761A, “Peptides for heparin and low molecular weight heparin anticoagulation reversal” (The Board of Regents of the University of Michigan, priority 1995, dated 1999).

Data set [1] has as its system standard, unfractionated heparin. The data set can be described thus: Percent reversal of standard heparin anticoagulation by variant peptides and protamine, in vivo canine study, coagulation tests. On the set-up: species or system dogs. The note with it: for Percent reversal of heparin anticoagulation, ACT: heparin 150 IU/kg IV, agent 1.5 mg/kg IV over 10 seconds. How it is done: Data are expressed as a mean ±1 SD. Statistical analysis using linear regression for determination of correlation coefficients, and analysis of variance (ANOVA) or unpaired two-way Student's t-test; p<0.05 was accepted as statistically significant.
Anticoagulation reversal was assessed by a number of standard coagulation tests performed upon samples of venous blood: activated clotting time (ACT), prothrombin time (PT), activated partial thromboplastin time (aPTT), thrombin clotting time (TCT), heparin concentration by assay for FXa inhibitory activity (FXa), white cell count (WBC), and platelet counts (PLT). Measurements were made 3 minutes prior to heparin reversal (baseline) and 3 minutes and 30 minutes post-administration of the heparin reversal agent. The "Heparin" row sets forth the observed reversal as a consequence of expected heparin metabolism or degradation alone.

Data set [2] is described as follows: Hemodynamic studies and total toxicity score after standard heparin reversal, canine study. The note with it: dogs.
Method: As used hereinafter, the peptides will be identified by their total cationic charge value, e.g., [+8], [+16], etc.
Hemodynamic studies were conducted by measuring mean arterial pressure (MAP), heart rate (HR), and maximum percent changes in cardiac output (CO) and systemic oxygen consumption (VO2).
Total toxicity scores (TTS) were developed that reflected maximum declines in each of four parameters (MAP, CO, VO2 and HR) over the first 5 minutes after reversal, the latter being the time of expected greatest adverse hemodynamic effect. The maximum changes occurring in an individual dog over the first 5 minutes were divided by the standard deviation derived from the entire group of tested animals and the four scores were added, resulting in a TTS for each individual dog. The TTS values for each dog were then summed to obtain an average TTS and SD for each peptide studied.
A short description of data set [3]: Maximum hemodynamic changes and total toxicity score after standard heparin reversal, cell adhesion ligand analogs, canine study. The note with it: dogs, agent over 10 seconds; for Maximum hemodynamic change, Mean BP: standard heparin 150 IU/kg IV; for Maximum hemodynamic change, Mean BP / Maximum hemodynamic change, CO / Maximum hemodynamic change, HR / Maximum hemodynamic change, VO2: 5 minutes; for Maximum hemodynamic change, CO / Maximum hemodynamic change, HR / Maximum hemodynamic change, VO2: standard heparin; for Total Toxicity Score: standard unfractionated heparin.
Method: In these studies, the anticoagulation-reversing agents were administered over a 10 second interval to maximize the hemodynamic effects.
Hemodynamic studies were conducted by measuring mean blood pressure (Mean BP) in mm Mercury, maximum percent changes in cardiac output (CO) and systemic oxygen consumption (VO2), and heart rate (HR) in beats per minute. Measurements and calculations were made at baseline, before administration of standard, unfractionated heparin, 3 minutes before reversal, every 30 seconds for 5 minutes after reversal.
Total toxicity scores (TTS) were developed in accordance with the method described hereinabove that reflected maximum declines in each of four parameters (MAP, CO, VO2 and HR) over the first 5 minutes after reversal.

A short description of data set [4]: Maximum hemodynamic changes and total toxicity score after Enoxaparin reversal, canine study. The note with it: dogs, agent over 10 seconds; for Maximum hemodynamic change, Mean BP: Enoxaparin 100 IU/kg; for Maximum hemodynamic change, Mean BP / Maximum hemodynamic change, CO / Maximum hemodynamic change, HR / Maximum hemodynamic change, VO2: 5 minutes; for Total Toxicity Score (TTS) / Maximum hemodynamic change, CO / Maximum hemodynamic change, HR / Maximum hemodynamic change, VO2: Enoxaparin.
Method: (§1) Seven female dogs (mean weight 15-20 kg) received intravenous standard, unfractionated heparin (150 IU/kg IV) or LMWH (Enoxaparin, Rhone-Poulac, France; 100 IU/kg factor Xa activity) followed by reversal with commercial salmine protamine (n-protamine purchased from Eli Lilly, Indianapolis, Ind., 1.5 mg/kg (100 IU/mg) IV) or an anticoagulation-reversing agent which is a protamine-like peptide variant identified hereinbelow. In these studies, the anticoagulation-reversing agents were administered over a 10 second interval to maximize the hemodynamic effects.

Data set [5] concerns standard, unfractionated heparin. The data set can be described thus: Factor Xa and IIa reversal after standard heparin, cell adhesion ligand analogs, canine study. It counts as in vivo. The note with it: dogs, 3 min post administration. How it is done:
Anticoagulation reversal was assessed by a number of standard coagulation tests performed upon samples of venous blood in the manner described hereinabove. Measurements were made 3 minutes prior to heparin reversal (baseline) and 3 minutes, 10 minutes, and 30 minutes post-administration of the heparin reversal agent. […] Referring to FIGS. 4a through 4d, compound [+18RGD] performs as well, or better, than n-protamine in the standard coagulation tests performed in these studies.

For another data set, the system named is LMWH (Enoxaparin). Kind of data set: Factor Xa and IIa reversal after LMWH Enoxaparin, canine study. It counts as in vivo. The note with it: dogs, 3 min. As for the experimental part: Similar studies were conducted to assess the ability of the protamine-like peptide analogs described in this section to reverse the anticoagulation effects of the LMWH, Enoxaparin. FIG. 5a through FIG. 5d are graphical representations of LMWH anticoagulation activities achieved by n-protamine (Protamine [+21]), and compounds [+18BE], [+18KDEL], and [+18RGD] plotted as a percent of reversal against time in minutes. […] Referring to FIG. 5c, compound [+18RGD] dramatically outperforms n-protamine in reversing the heparin antifactor Xa activity of Enoxaparin.

Data set [6] can be described thus: Percent change in platelet count after Enoxaparin reversal, canine study. It counts as in vivo. The note with it: dogs, agent over 10 seconds.
Method: as §1
The nature of data set [7]: Percent change in platelet count after standard heparin reversal, cell adhesion ligand analogs, canine study. It counts as in vivo. The note with it: dogs, agent over 10 seconds. As for the experimental part:
In addition to hemodynamic changes, Table 15 lists the percent change in platelet count following administration of n-protamine and the selected variants, as well as the factor Xa and factor IIa reversal, as a percent change at 3 minutes post administration of the compound.

Values joined by “and” are separate entries in the source; they are usually repeats but may differ in a detail not shown here. Identical values can stand only once. Peptide text beside a SMILES is read from it.

On to P(K2 O2 G4)3 K2 O2 [[+8]], for which, in data set [1] (dogs, standard heparin), the “in vivo heparin reversal (summary)” value is reported as “not capable of effect heparin reversal”. Besides, the “Percent reversal of heparin anticoagulation, ACT” value in data set [1] (dogs, 3 min post-administration) came out at 7%. Further, in data set [1] (dogs, 30 min), the “Percent reversal of heparin anticoagulation, ACT” value turned out to be 37%. Further, in data set [1] (same study, 3 min), the “Percent reversal of heparin anticoagulation, APTT” value is on record as 0%; the “Percent reversal of heparin anticoagulation, FNa” value was 8%; the “Percent reversal of heparin anticoagulation, FXa” value is given as -1%; the “Percent reversal of heparin anticoagulation, PT” value came to 21%. The “Percent reversal of heparin anticoagulation, TCT” value in data set [1] (same study, 3 min) is 0%. In data set [1] (same study, 30 min), the “Percent reversal of heparin anticoagulation, APTT” value is recorded as 50%; the “Percent reversal of heparin anticoagulation, FXa” value is given as 9%; the “Percent reversal of heparin anticoagulation, PT” value is 50%; the “Percent reversal of heparin anticoagulation, TCT” value stood at 0%. In addition, the ΔHR in data set [2] is reported as -9. In addition, the ΔMAP in data set [2] (average maximum decline in first five minutes after peptide administration) is on record as -1. In addition, in data set [2] (first 5 minutes after reversal, more negative = more toxic), the “average total toxicity score (TTS±SD)” value is reported as -1.9±1.1. In data set [2] (maximum percent change), the ΔCO is -8% and the ΔVO2 is on record as -8%.

For `CC(=O)N[C@@H](CCC(=O)O)C(=O)N[C@@H](C)C(=O)N[C@@H](CCCNC(=N)N)C(=O)N[C@@H](CCCNC(=N)N)C(=O)N[C@@H](C)C(=O)N[C@@H](C)C(=O)N[C@@H](CCCNC(=N)N)C(=O)N[C@@H](CCCNC(=N)N)C(=O)N[C@@H](C)C(=O)N[C@@H](CCCNC(=N)N)C(=O)N[C@@H](CCCNC(=N)N)C(=O)N[C@@H](C)C(=O)N[C@@H](C)C(=O)N[C@@H](CCCNC(=N)N)C(=O)N[C@@H](CCCNC(=N)N)C(=O)N[C@@H](C)C(=O)N[C@@H](CCCNC(=N)N)C(=O)N[C@@H](CCCNC(=N)N)C(=O)N[C@@H](C)C(=O)N[C@@H](C)C(=O)N[C@@H](CCCNC(=N)N)C(=O)N[C@@H](CCCNC(=N)N)C(=O)N[C@@H](C)C(=O)N[C@@H](CCCNC(=N)N)C(=O)N[C@@H](CCCNC(=N)N)C(=O)N[C@@H](C)C(=O)N[C@@H](C)C(=O)N[C@@H](CCCNC(=N)N)C(=O)N[C@@H](CCCNC(=N)N)C(=O)N[C@@H](C)C(=O)N[C@@H](CCCNC(=N)N)C(=O)N[C@@H](CCCNC(=N)N)C(=O)NCC(=O)N[C@@H](CCCNC(=N)N)C(=O)NCC(=O)N[C@@H](CC(=O)O)C(=O)N[C@@H](CO)C(=O)N1CCC[C@H]1C(=O)N[C@@H](C)C(N)=O` [[+18RGD], acetyl-EA--(R2 A2 R2 A)4 R2 GRGDSPA-amide] (Ac-EARRAARRARRAARRARRAARRARRAARRARRGRGDSPA-NH2), in data set [3], the “Maximum hemodynamic change, Mean BP” value is -2 mm Mercury; the “Maximum hemodynamic change, CO” value is -3%; the “Maximum hemodynamic change, HR” value is listed as -3 beats/min; the “Maximum hemodynamic change, VO2” value is listed as -4%. Moreover, the “Total Toxicity Score” value in data set [3] is reported as -1.43 ± 0.61. In data set [4], the “Maximum hemodynamic change, Mean BP” value is reported as -1 mm Mercury; the “Total Toxicity Score (TTS)” value was -2.68 and -2.68 ± 0.88; the “Maximum hemodynamic change, CO” value is given as -3%; the “Maximum hemodynamic change, HR” value was -3 beats/min. Also, the “Maximum hemodynamic change, VO2” value in data set [4] is recorded as -7%. Further, in data set [5], the “IIa Reversal” value came out at 100% and the “Xa Reversal” value is reported as 100%. In the data set on LMWH (Enoxaparin), the “IIa Reversal” value came to 100% and the “Xa Reversal” value amounted to 72%. Besides, the “Platelet (percent change in platelet count)” value in data set [6] is listed as -31%. Further, the “Platelet (percent change in platelet count)” value in data set [7] is reported as -27%.

As for `CC(=O)N[C@@H](CCC(=O)O)C(=O)N[C@@H](C)C(=O)N[C@@H](CCCNC(=N)N)C(=O)N[C@@H](CCCNC(=N)N)C(=O)N[C@@H](C)C(=O)N[C@@H](C)C(=O)N[C@@H](CCCNC(=N)N)C(=O)N[C@@H](CCCNC(=N)N)C(=O)N[C@@H](C)C(=O)N[C@@H](CCCNC(=N)N)C(=O)N[C@@H](CCCNC(=N)N)C(=O)N[C@@H](C)C(=O)N[C@@H](C)C(=O)N[C@@H](CCCNC(=N)N)C(=O)N[C@@H](CCCNC(=N)N)C(=O)N[C@@H](C)C(=O)N[C@@H](CCCNC(=N)N)C(=O)N[C@@H](CCCNC(=N)N)C(=O)N[C@@H](C)C(=O)N[C@@H](C)C(=O)N[C@@H](CCCNC(=N)N)C(=O)N[C@@H](CCCNC(=N)N)C(=O)N[C@@H](C)C(=O)N[C@@H](CCCNC(=N)N)C(=O)N[C@@H](CCCNC(=N)N)C(=O)N[C@@H](C)C(=O)N[C@@H](C)C(=O)N[C@@H](CCCNC(=N)N)C(=O)N[C@@H](CCCNC(=N)N)C(=O)N[C@@H](C)C(=O)N[C@@H](CCCNC(=N)N)C(=O)N[C@@H](CCCNC(=N)N)C(=O)NCC(=O)N[C@H](C(=O)N[C@@H](CCCCN)C(=O)N[C@@H](CC(=O)O)C(=O)N[C@@H](CCC(=O)O)C(=O)N[C@@H](CC(C)C)C(=O)O)C(C)C` [[+18KDEL], acetyl-EA(R2 A2 R2 A)4 R2 GVKDEL] (Ac-EARRAARRARRAARRARRAARRARRAARRARRGVKDEL-OH), in data set [3], the “Maximum hemodynamic change, Mean BP” value is recorded as -5 mm Mercury; the “Maximum hemodynamic change, CO” value is recorded as -12%; the “Maximum hemodynamic change, HR” value is reported as -14 beats/min; the “Maximum hemodynamic change, VO2” value is reported as -6%. The “Total Toxicity Score” value in data set [3] is -3.53 ± 1.65. Further, in data set [4], the “Maximum hemodynamic change, Mean BP” value is -6 mm Mercury; the “Total Toxicity Score (TTS)” value was -5.00 and -5.0 ± 3.44; the “Maximum hemodynamic change, CO” value was -14%; the “Maximum hemodynamic change, HR” value is on record as -11 beats/min. Further, the “Maximum hemodynamic change, VO2” value in data set [4] is -10%. Besides, in data set [5], the “IIa Reversal” value is 94% and the “Xa Reversal” value is 97%. For the same molecule, in the data set on LMWH (Enoxaparin), the “IIa Reversal” value is given as 98% and the “Xa Reversal” value was found to be 48%. Further, in data set [6], the “Platelet (percent change in platelet count)” value is listed as -40%. Moreover, the “Platelet (percent change in platelet count)” value in data set [7] is on record as -24%.
